This note sets out measurements from article PMC6792352, “Limited Chemical Structural Diversity Found to Modulate Thyroid Hormone Receptor in the Tox21 Chemical Library” (Environmental Health Perspectives, 2019).

The nature of the series: in vitro. Conditions: rat, gh3-tre-luc cells.

SMILES strings stand for the structures. Structures can show the parent of a compound that is named as a salt. Non-standard residues stand in square brackets, D forms with d. Residues, ends and D or L forms follow the SMILES beside them. pGlu = O=C1CC[C@@H](C(=O)O)N1; Thz = O=C(O)[C@@H]1CSCN1

In general, CC50 refers to the concentration at which the toxic effect on the cells reaches its halfway point. Read a low CC50 as greater toxicity to the cells. `Cc1nnc(NS(=O)(=O)c2ccc(N)cc2)s1` [Sulfamethizole]: the CC50 at 24 h (AC50 (uM) modified / 1000) was above 50 µM. Regarding `O=C(Cc1ccccc1)c1ccccc1` [1,2-Diphenylethanone], for the setting “AC50 (uM) modified / 1000, Tox21_110001=Tox21_302159, viability, 1 nM T3 present, 24 h”, the CC50 at 24 h was above 90 µM. Molecule `COc1cc(N)c(Cl)cc1C(=O)NC1CCN(Cc2ccccc2)CC1` [Clebopride maleate] yielded a half-maximal cytotoxic concentration (CC50) at 24 h (AC50 (uM) modified / 1000) above 20 µM. The same measure, in the same setting: next, `Cc1noc(NS(=O)(=O)c2ccc(N)cc2)c1C` [Sulfisoxazole]: above 50 µM. Regarding `O=c1[nH]c(=O)n([C@H]2C[C@H](O)[C@@H](CO)O2)cc1F` [Floxuridine], the CC50 at 24 h (AC50 (uM) modified / 1000) was above 50 µM. Still for that read-out and setting: the same measure for `CC(=O)CN(CC(C)=O)N=O` [N-Nitrosobis(2-oxopropyl)amine]: above 90 µM; for `NC(=O)c1ncn([C@@H]2O[C@H](CO)[C@@H](O)[C@H]2O)c1O` [Mizoribine]: above 50 µM; for `COC(=O)c1cc(Oc2ccc(Cl)cc2Cl)ccc1[N+](=O)[O-]` [Bifenox]: above 90 µM. The same measure, in the same setting: next, `COc1ccc(N=[N+]([O-])c2ccc(OC)cc2)cc1` [4-Azoxyanisole]: above 90 µM; `O=C1CC[C@@H](C(=O)N2CSC[C@H]2C(=O)O)N1` [Pidotimod] ([pGlu]-[Thz]-OH): above 50 µM; `C[Si](C)(C)O[Si](C)(C)O[Si](C)(C)C` [Octamethyltrisiloxane]: above 90 µM.

On to `O=[N+]([O-])c1ccc(O/N=C/c2cc(Br)c(O)c(Br)c2)c([N+](=O)[O-])c1` [Bromofenoxim], for which the CC50 at 24 h (AC50 (uM) modified / 1000) is 26 µM. For the molecule `CCC(C)(C)C(=O)O` [2,2-Dimethylbutanoic acid], the CC50 at 24 h (AC50 (uM) modified / 1000) is above 90 µM.

As to `CN(C)C` [Trimethylamine hydrochloride], the CC50 at 24 h (AC50 (uM) modified / 1000) is above 90 µM. Molecule `CC(O)CN(CCCN(C)C)CCCN(C)C` (centres unmarked) [1-{Bis[3-(dimethylamino)propyl]amino}propan-2-ol] showed a CC50 at 24 h (AC50 (uM) modified / 1000) above 90 µM.

The molecule `C=CC(=O)NC(C)(C)CS(=O)(=O)O` [2-Acrylamido-2-methyl-1-propanesulfonic acid] returned a CC50 at 24 h (AC50 (uM) modified / 1000) above 90 µM. `NC12CC3CC(CC(C3)C1)C2` [Amantadine] registered a CC50 at 24 h (AC50 (uM) modified / 1000) of 36.1 µM. On the same count and under the same terms, the same measure for `CC(C)N1CCN(c2ccc(OC[C@H]3CO[C@](Cn4cncn4)(c4ccc(Cl)cc4Cl)O3)cc2)CC1` (racemic) [Terconazole]: 5.35 µM. On the same count and under the same terms, next, `C#CC(O)C(CC)CCCC` (centres unmarked) [4-Ethyloct-1-yn-3-ol]: above 90 µM; `COc1ccc2sc(C(=O)Nc3nnn[nH]3)c(OC(C)C)c2c1` [CI-959]: 6.07 µM; `CC(c1ccc(O)cc1)c1ccc(O)cc1` [Bisphenol E]: above 90 µM.

`NC(=O)N/N=C/c1ccc([N+](=O)[O-])o1` [Nitrofurazone]: the CC50 at 24 h (AC50 (uM) modified / 1000) is above 90 µM. Same read-out and setting: next, `NCCS(=O)(=O)O` [l-Taurine]: 29.5 µM; `CC(C)=O` [Acetone]: above 90 µM; `N[C@@H](Cc1ccc(O)cc1)C(=O)O` [L-Tyrosine]: above 50 µM. On the same count and under the same terms, the same measure for `CC(=O)/C(C)=C/C1C(C)=CCCC1(C)C` (stereo not drawn) [alpha-Isomethylionone]: above 90 µM; for `Cc1ccc2cccnc2c1` [7-Methylquinoline]: above 90 µM.

`CCCCCCCCOC(=O)c1cc(O)c(O)c(O)c1` [Octyl gallate]: the midpoint of cytotoxicity (AC50 (uM) modified / 1000), the CC50 at 24 h, lay at 2.6 µM. Molecule `O=S(=O)(O)CC(S)CS` (centres unmarked) [Sodium 2,3-dimercaptopropanesulfonate hydrate] yielded a cytotoxic concentration (CC50) at 24 h (AC50 (uM) modified / 1000) above 50 µM. The same measure, in the same setting: next, `C=C1C[C@@]23CC[C@H]4[C@@](C)(CCC[C@@]4(C)C(=O)O[C@@H]4O[C@H](CO)[C@@H](O)[C@H](O)[C@H]4O)[C@@H]2CC[C@]1(O[C@@H]1O[C@H](CO)[C@@H](O)[C@H](O)[C@H]1O[C@@H]1O[C@H](CO)[C@@H](O)[C@H](O[C@@H]2O[C@H](CO)[C@@H](O)[C@H](O)[C@H]2O)[C@H]1O)C3` [Rebaudioside A]: above 90 µM. Still for that read-out and setting: the same measure for `CCCC(C)C1(CC)C(=O)NC(=O)NC1=O` (centres unmarked) [Pentobarbital]: above 50 µM.

Molecule `Nc1ccc(-c2ccccc2)cc1` [4-Biphenylamine] returned a CC50 at 24 h (AC50 (uM) modified / 1000, Tox21_110001=Tox21_200376, viability, 1 nM T3 present, 24 h) above 90 µM. Molecule `Cc1c(Cl)cccc1Nc1ccccc1C(=O)O` [Tolfenamic acid] yielded a cytotoxic concentration (CC50) at 24 h (AC50 (uM) modified / 1000) above 50 µM. Same read-out and setting: the same measure for `CN(C)CCCSc1ccccc1NC(=O)/C=C/c1ccccc1` [Cinanserin]: 22.6 µM; for `O=C(O)CCn1c2c(c3ccccc31)C[C@H](NS(=O)(=O)c1ccc(F)cc1)CC2` [Ramatroban]: above 50 µM; for `Cc1occc1SSc1ccoc1C` [Bis(2-methyl-3-furyl)disulfide]: above 90 µM. On the same count and under the same terms, the same measure for `CCCCCCCCOS(=O)(=O)O` [Sodium octyl sulfate]: above 90 µM; for `NCCCC[C@H](N)C(=O)O` [Lysine]: above 50 µM. Still for that read-out and setting: the same measure for `CC/C=C\CCOC(=O)C(C)C` [(3Z)-Hex-3-en-1-yl 2-methylpropanoate]: above 90 µM; for `CC1=CCC(C(C)C)=CC1` [gamma-Terpinene]: above 90 µM. In turn, `CN1C(=O)c2ccccc2C1=O` [N-Methylphthalimide] showed a CC50 at 24 h (AC50 (uM) modified / 1000) above 90 µM. Still for that read-out and setting: the same measure for `CCCCCCC(=O)CCCCCC/C=C/C[C@@H](O)[C@H](O)[C@@](N)(CO)C(=O)O` [Myriocin]: above 50 µM; for `CC(C)=CCl` [2,2-Dimethylvinyl chloride]: above 90 µM. On the same count and under the same terms, the same measure for `COCC1=C(C(=O)OC(C)OC(=O)OC(C)C)N2C(=O)[C@@H](NC(=O)/C(=N\OC)c3csc(N)n3)[C@H]2SC1` (some centres unmarked) [Cefpodoxime proxetil]: above 50 µM; for `CC(C)(C)C(=O)/C=C/c1ccc(Cl)cc1` [1-(4-Chlorophenyl)-4,4-dimethylpent-1-en-3-one]: above 90 µM. In turn, `O=C=NCCCCCCN=C=O` [1,6-Diisocyanatohexane] yielded a CC50 at 24 h (AC50 (uM) modified / 1000) above 90 µM. In turn, `C=CCCl` [Allyl chloride] registered a CC50 at 24 h (AC50 (uM) modified / 1000, Tox21_110001=Tox21_200824, viability, 1 nM T3 present, 24 h) above 100 µM.

Consider `CCNCC` [Diethylamine], for which, where the note is “AC50 (uM) modified / 1000”, the CC50 at 24 h was above 100 µM. For the setting “AC50 (uM) modified / 1000, Tox21_110001=Tox21_113513, viability, 1 nM T3 present, 24 h”, `C[C@@H]1[C@@H]2Cc3ccc(O)cc3[C@@]1(C)CCN2CC1CC1` [(+)-Cyclazocine] yielded a CC50 at 24 h above 50 µM. `CC(=O)Nc1cc(S(=O)(=O)O)cc2cc(S(=O)(=O)O)c(N=Nc3ccccc3)c(O)c12` [C.I. Acid Red 1] gave a CC50 at 24 h (AC50 (uM) modified / 1000) of 53.1 µM.

The molecule `CC(C)OC(=O)c1ccccc1C(=O)OC(C)C` [Diisopropyl phthalate] had a CC50 at 24 h (AC50 (uM) modified / 1000) above 90 µM. Same read-out and setting: the same measure for `C=C1/C(=C\C=C2/CCC[C@]3(C)[C@@H]([C@H](C)/C=C/[C@@H](O)C4CC4)CC[C@@H]23)C[C@@H](O)C[C@@H]1O` [Calcipotriene]: 34.7 µM; for `CC1CCC(C(C)CS)CC1S` (centres unmarked) [Dipentenedimercaptan]: above 90 µM; for `O=C(O)/C=C/C(O)c1ccc(Cl)cc1` (centres unmarked) [Sodium (2E)-4-(4-chlorophenyl)-4-hydroxybut-2-enoate hydrate]: above 50 µM. The same measure, in the same setting: next, `CCNC(=O)NCCCOc1cccc(CN2CCCCC2)c1` [Dalcotidine]: above 50 µM.

Turning to `c1ccc2c(c1)Sc1ccccc1N2CCN1CCCC1` [Pyrathiazine], it took 19.5 µM to reach half-maximal cytotoxicity (AC50 (uM) modified / 1000) (CC50 at 24 h). The same measure, in the same setting: the same measure for `c1coc(CNc2ncnc3[nH]cnc23)c1` [Kinetin]: above 90 µM. On the same count and under the same terms, the same measure for `CCNC(=O)/C=C/c1cccc(Br)c1` [Cinromide]: above 50 µM. Still for that read-out and setting: next, `CC(C)=CCCC(C)CC=O` (centres unmarked) [Citronellal]: above 90 µM.
